Reference: US10357514B2, “Treatment of cancer using anti-CD19 Chimeric Antigen Receptor” (The Trustees of the University of Pennsylvania, priority 2014, dated 2019)
Marks after values point to notes of the source that are not given here.

Columns and labels:
[1] = system: P70 S6K; assay: Inhibition of P70 S6K activity in HeLa cells in vitro; settings: Homo sapiens, read-out: % P70 S6K inhibition
[2] = system: pneumococcal serotypes; assay: Antibody titers after pneumococcal vaccination (Pneumovax 23); assay type: in vivo, human; settings: 7 serotypes measured; all 3 RAD cohorts
Experimental: Elderly volunteers >=65 years of age were randomized to one of the 3 RAD001 treatment groups (50 subjects per arm) or placebo (20 subjects per arm). Subjects were treated with study drug for 6 weeks, given a 2 week break, and then received influenza (Aggrippal, Novartis) and pneumoccal (Pneumovax 23, Merck), vaccinations. Response to influenza vaccination was assessed by measuring the geometric mean titers (GMTs) by hemagglutination inhibition assay to the 3 influenza strains (H1N1, H3N2 and B influenza subtypes) in the influenza vaccine 4 weeks after vaccination. The primary endpoints of the study were (1) safety and tolerability and (2) a 1.2 fold increase in influenza titers as compared to placebo in 2/3 of the influenza vaccine strains 4 weeks after vaccination. This endpoint was chosen because a 1.2 fold increase in influenza titers is associated with a decrease in influenza illness post vaccination, and therefore is clinically relevant. […] The pneumococcal vaccine contains antigens from 23 pneumococcal serotypes. Antibody titers to 7 of the serotypes were measured in our subjects.

[3] = system: B/Brisbane/60/2008; assay: Hemagglutination inhibition titer and seroconversion after 2012 seasonal influenza vaccination; assay type: in vivo, human; settings: for HI GMT ratio, B: GMT at week 4 post vaccination/GMT at baseline; for Percent of subjects with seroconversion, B: 4 weeks after vaccination
Source text: (§1) Results were expressed as fluorescence intensity.
(§2) The primary analysis of geometric mean titer ratios was done using a normal Bayesian regression model with non-informative priors. This model was fitted to each antibody titer on the log scale. The primary outcome in each model was the Day 84 measurement. The Day 63 measurement was included in the outcome vector. The model fitted using SAS 9.2 proc mixed with the prior statement. The covariance structure of the matrix was considered as unstructured (option type=UN). A flat prior was used. For the secondary analysis of seroconversion rates, logistic regression was used.
(§3) The ability of RAD001 to improve immune function in elderly volunteers was evaluated by measuring the serologic response to the 2012 seasonal influenza vaccine. The hemagglutination inhibition (HI) geometric mean titers (GMT) to each of the 3 influenza vaccine strains at baseline and 4 weeks after influenza vaccination are provided in Table 10. The primary analysis variable was the HI GMT ratio (4 weeks post vaccination/baseline). […] This endpoint was chosen because a 1.2-fold increase in the influenza GMT ratio induced by the MF-59 vaccine adjuvant was associated with a decrease in influenza illness (Iob, A et al. (2005) Epidemiol Infect 133:687-693).
(§4) Rates of seroconversion 4 weeks after influenza vaccination were also evaluated. Seroconversion was defined as the change from a negative pre-vaccination titer (i.e., HI titer <1:10) to post-vaccination HI titer ≥1:40 or at least 4-fold increase from a non-negative (≥1:10) pre-vaccination HI titer.

[4] = system: H1N1 A/California/07/2009; assay: as above; assay type: in vivo, human; settings: for HI GMT ratio, A/H1N1: GMT at week 4 post vaccination/GMT at baseline; for Percent of subjects with seroconversion, H1N1: 4 weeks after vaccination
Source text: as §1, §2, §3, §4

[5] = system: H3N2 A/Victoria/210/2009; assay: as above; assay type: in vivo, human; settings: for HI GMT ratio, A/H3N2: GMT at week 4 post vaccination/GMT at baseline; for Percent of subjects with seroconversion, H3N2: 4 weeks after vaccination
Source text: as §1, §2, §3, §4

[6] = Baseline (2 weeks prior to influenza vaccination), 0.5 mg daily, N = 50
[7] = Baseline (2 weeks prior to influenza vaccination), 5 mg weekly, N = 49
[8] = Baseline (2 weeks prior to influenza vaccination), 20 mg weekly, N = 49
[9] = Intention to Treat Population, 0.5 mg, N = 48
[10] = Intention to Treat Population, 5 mg, N = 49
[11] = Intention to Treat Population, 20 mg, N = 48
[12] = Subjects with Baseline Titers <=40, 0.5 mg
[13] = Subjects with Baseline Titers <=40, 5 mg
[14] = Subjects with Baseline Titers <=40, 20 mg
[15] = Week 4 after influenza vaccination, 0.5 mg daily, N = 50
[16] = Week 4 after influenza vaccination, 5 mg weekly, N = 49
[17] = Week 4 after influenza vaccination, 20 mg weekly, N = 49

Which inhibition at 6 pM [1] does the source give for `CO[C@H]1C[C@@H]2CC[C@@H](C)[C@@](O)(O2)C(=O)C(=O)N2CCCC[C@H]2C(=O)O[C@H]([C@H](C)C[C@@H]2CC[C@@H](OCCO)[C@H](OC)C2)CC(=O)[C@H](C)/C=C(\C)[C@@H](O)[C@@H](OC)C(=O)[C@H](C)C[C@H](C)/C=C/C=C/C=C/1C` [RAD001, (1R,9S,12S,15R,16E,18R,19R,21R,23S,24E,26E,28E,30S,32S,35R)-1,18-dihydroxy-12-{(1R)-2-[(1S,3R,4R)-4-(2-hydroxyethoxy)-3-methoxycyclohexyl]-1-methylethyl}-19,30-dimethoxy-15,17,21,23,29,35-hexamethyl-11,36-dioxa-4-aza-tricyclo[30.3.1.04,9]hexatriaconta-16,24,26,28-tetraene-2,3,10,14,20-pentaone] here?
The inhibition at 6 pM was 0%.

What about the inhibition at 32 pM [1] of the same compound?
The inhibition at 32 pM was 18%.

And the inhibition at 0.0008 µM [1]?
Its inhibition at 0.0008 µM is 62%.

And the inhibition at 0.004 µM [1]?
Its inhibition at 0.004 µM is 90%.

And the inhibition at 0.02 µM [1]?
The inhibition at 0.02 µM was 95%.

And the “pneumococcal antibody titers compared to placebo” value [2]?
Its value is 6/7 serotypes were increased.

And the “average RAD001 trough level” value (5 mg weekly, lower limit of quantification 0.3 ng/ml)?
Its value is “below detection limits”.

What about the “trough level of study dosing regimens lower than approved transplant and oncology regimens” value (dosing regimens used in the immunization study) of the same compound?
The value was 3-20 fold.

What about the “HI GMT, B” value [3, 6] of the same compound?
The value was 44.2.

What about the “HI GMT, B” value [3, 7] of the same compound?
The value was 64.8.

And the “HI GMT, B” value [3, 8]?
Its value is 58.0.

What about the “HI GMT ratio, B” value ([3]; 0.5 mg daily, N = 50) of the same compound?
Its value is 2.5.

And the “HI GMT ratio, B” value ([3]; 5 mg weekly, N = 49)?
The value was 2.2.

And the “HI GMT ratio, B” value ([3]; 20 mg weekly, N = 49)?
The value was 2.1.

What about the “Percent of subjects with seroconversion, B” value [3, 9] of the same compound?
Its value is 27%.

What about the “Percent of subjects with seroconversion, B” value [3, 10] of the same compound?
The value was 22%.

And the “Percent of subjects with seroconversion, B” value [3, 11]?
Its value is 19%.

And the “Percent of subjects with seroconversion, B” value [3, 12]?
Its value is 40* Percent.

What about the “Percent of subjects with seroconversion, B” value [3, 13] of the same compound?
The value was 33%.

And the “Percent of subjects with seroconversion, B” value [3, 14]?
Its value is 28%.

What about the “HI GMT, B” value [3, 15] of the same compound?
The value was 98.4.

What about the “HI GMT, B” value [3, 16] of the same compound?
The value was 117.3.

What about the “HI GMT, B” value [3, 17] of the same compound?
The value was 99.2.

And the “HI GMT, A/H1N1” value [4, 6]?
The value was 102.8.

What about the “HI GMT, A/H1N1” value [4, 7] of the same compound?
Its value is 84.2.

And the “HI GMT, A/H1N1” value [4, 8]?
The value was 90.1.

What about the “HI GMT ratio, A/H1N1” value ([4]; 0.5 mg daily, N = 50) of the same compound?
Its value is 2.6.

And the “HI GMT ratio, A/H1N1” value ([4]; 5 mg weekly, N = 49)?
The value was 2.5.

What about the “HI GMT ratio, A/H1N1” value ([4]; 20 mg weekly, N = 49) of the same compound?
The value was 1.8.

What about the “Percent of subjects with seroconversion, H1N1” value (shortened to “Percent of subjects … H1N1”) [4, 9] of the same compound?
The value was 27%.

What about the “Percent of subjects … H1N1” value [4, 10] of the same compound?
Its value is 27%.

And the “Percent of subjects … H1N1” value [4, 11]?
The value was 17%.

And the “Percent of subjects … H1N1” value [4, 12]?
The value was 42%.

What about the “Percent of subjects … H1N1” value [4, 13] of the same compound?
The value was 45%.

What about the “Percent of subjects … H1N1” value [4, 14] of the same compound?
Its value is 36%.

And the “HI GMT, A/H1N1” value [4, 15]?
The value was 190.2.

What about the “HI GMT, A/H1N1” value [4, 16] of the same compound?
The value was 198.73.

What about the “HI GMT, A/H1N1” value [4, 17] of the same compound?
Its value is 129.7.

What about the “HI GMT, A/H3N2” value [5, 6] of the same compound?
Its value is 106.8.

What about the “HI GMT, A/H3N2” value [5, 7] of the same compound?
Its value is 126.04.

What about the “HI GMT, A/H3N2” value [5, 8] of the same compound?
Its value is 137.1.

And the “HI GMT ratio, A/H3N2” value ([5]; 0.5 mg daily, N = 50)?
Its value is 2.1.

What about the “HI GMT ratio, A/H3N2” value ([5]; 5 mg weekly, N = 49) of the same compound?
The value was 2.0.

And the “HI GMT ratio, A/H3N2” value ([5]; 20 mg weekly, N = 49)?
Its value is 2.1.

What about the “Percent of subjects with seroconversion, H3N2” value (from here on “Percent of subjects … H3N2”) [5, 9] of the same compound?
The value was 27%.

And the “Percent of subjects … H3N2” value [5, 10]?
Its value is 24%.

What about the “Percent of subjects … H3N2” value [5, 11] of the same compound?
The value was 25%.

What about the “Percent of subjects … H3N2” value [5, 12] of the same compound?
The value was 64%.

What about the “Percent of subjects … H3N2” value [5, 13] of the same compound?
Its value is 53%.

And the “Percent of subjects … H3N2” value [5, 14]?
The value was 71%.

And the “HI GMT, A/H3N2” value [5, 15]?
The value was 194.4.

And the “HI GMT, A/H3N2” value [5, 16]?
Its value is 223.0.

And the “HI GMT, A/H3N2” value [5, 17]?
The value was 223.0.
